Results published in ChEMBL document CHEMBL1201862, “PubChem BioAssay data set” (2004).
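Test compounds were applied to cells in 96-well plates for 48 hours at 5 doses. GI50: concentration for 50% inhibition of growth.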 The source made the active and inactive calls. Cut-off read from the data, not from the text of the source: active = GI50 up to about 1.1 µM and inactive = higher.

Columns and labels:
Assay in all cases: DTP human tumour cell line panel, 48 h
CCRF-CEM = tested on: CCRF-CEM
DMS-114 = tested on: DMS-114
HCC 2998 = tested on: HCC 2998
HCT-15 = tested on: HCT-15
HT-29 = tested on: HT-29
LOX IMVI = tested on: LOX IMVI
M14 = tested on: M14
M19-MEL = tested on: M19-MEL
MOLT-4 = tested on: MOLT-4
NCI-H460 = tested on: NCI-H460
NCI-H522 = tested on: NCI-H522
RXF 393 = tested on: RXF 393
SF-268 = tested on: SF-268
SK-MEL-2 = tested on: SK-MEL-2
SNB-19 = tested on: SNB-19
U-251 = tested on: U-251
UACC-62 = tested on: UACC-62
SF-539 = tested on: SF-539

| SMILES | GI50 (CCRF-CEM) | GI50 (DMS-114) | GI50 (HCC 2998) | GI50 (HCT-15) [µM] | GI50 (HT-29) | GI50 (LOX IMVI) | GI50 (M14) | GI50 (M19-MEL) | GI50 (MOLT-4) | GI50 (NCI-H460) | GI50 (NCI-H522) | GI50 (RXF 393) | GI50 (SF-268) | GI50 (SK-MEL-2) | GI50 (SNB-19) | GI50 (U-251) | GI50 (UACC-62) | GI50 (SF-539) |
| --- | --- | --- | --- | --- | --- | --- | --- | --- | --- | --- | --- | --- | --- | --- | --- | --- | --- | --- |
| CCN(CC)c1c(C(=O)/C=C/c2ccc(Cl)cc2)c(-c2ccccc2)nn(C)c1=O | 1.97 µM (inactive) | 1.97 µM (inactive) | 1.85 µM (inactive) | 1.69 | 1.77 µM (inactive) | 1.9 µM (inactive) | 2.08 µM (inactive) | 1.69 µM (inactive) | 2.12 µM (inactive) | 1.93 µM (inactive) | 1.59 µM (inactive) | 1.47 µM (inactive) | 1.7 µM (inactive) | 1.93 µM (inactive) | 1.93 µM (inactive) | 1.76 µM (inactive) | 1.71 µM (inactive) |  |
| O=c1c2ccccc2[nH]c2ccc3c(Cl)n[nH]c3c12 | 56.9 µM (inactive) | 57.7 µM (inactive) | 35.5 µM (inactive) | 35.6 | 37.6 µM (inactive) | 20.8 µM (inactive) | 60.1 µM (inactive) | 42.6 µM (inactive) | 9.95 µM (inactive) | 31.8 µM (inactive) | 35 µM (inactive) | 42.2 µM (inactive) | 50.5 µM (inactive) | 30.7 µM (inactive) | 32.7 µM (inactive) | 53.6 µM (inactive) | 35 µM (inactive) |  |
| O=C1[C@H]2ON(c3ccccc3)C(c3ccccc3F)[C@H]2C(=O)N1c1ccc(Cc2ccc(N3C(=O)[C@@H]4ON(c5ccccc5)C(c5ccccc5F)[C@@H]4C3=O)cc2)cc1 (stereo not given in full) | > 100 µM (inactive) | > 100 µM (inactive) | > 100 µM (inactive) | > 100 | > 100 µM (inactive) | 63.8 µM (inactive) | 34.8 µM (inactive) | > 100 µM (inactive) | > 100 µM (inactive) | > 100 µM (inactive) |  | 55.2 µM (inactive) | > 100 µM (inactive) | > 100 µM (inactive) |  | > 100 µM (inactive) | > 100 µM (inactive) | > 100 µM (inactive) |
| Cc1ccc(C2=C(c3ccccc3)C(O)(c3ccc(C)cc3)C(c3ccccc3)=C2c2ccc(C)cc2)cc1 | > 100 µM (inactive) | > 100 µM (inactive) | > 100 µM (inactive) | > 100 |  | > 100 µM (inactive) | 82 µM (inactive) | > 100 µM (inactive) | > 100 µM (inactive) | > 100 µM (inactive) |  |  | > 100 µM (inactive) | > 100 µM (inactive) | > 100 µM (inactive) | > 100 µM (inactive) | > 100 µM (inactive) | > 100 µM (inactive) |
